Data published in ChEMBL document CHEMBL1201862, “PubChem BioAssay data set” (2004).
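Method: 48-hour compound exposure of cells in 96-well plates, five concentrations, linear interpolation of endpoints. GI50: concentration for 50% inhibition of growth.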 The source made the active and inactive calls. No stated cut-off is given here; in the data, active = GI50 up to about 1.1 µM and inactive = higher.

Key:
Test in all cases: NCI anticancer screen, dose series, 48 h
SNB-75 = system: SNB-75
MDA-N = system: MDA-N
NCI-H522 = system: NCI-H522
SN12C = system: SN12C
T47D = system: T47D
NCI-H460 = system: NCI-H460
TK-10 = system: TK-10
LOX IMVI = system: LOX IMVI
NCI-H23 = system: NCI-H23
SR = system: SR
COLO 205 = system: COLO 205
RPMI-8226 = system: RPMI-8226
IGROV-1 = system: IGROV-1
RXF 393 = system: RXF 393
HOP-62 = system: HOP-62
SK-OV-3 = system: SK-OV-3
UO-31 = system: UO-31
MCF7 = system: MCF7
HCT-15 = system: HCT-15
A498 = system: A498

Row | SMILES | GI50 (SNB-75) | GI50 (MDA-N) | GI50 (NCI-H522) | GI50 (SN12C) | GI50 (T47D) | GI50 (NCI-H460) | GI50 (TK-10) | GI50 (LOX IMVI) | GI50 (NCI-H23) | GI50 (SR) | GI50 (COLO 205) | GI50 (RPMI-8226) | GI50 (IGROV-1) | GI50 (RXF 393) | GI50 (HOP-62) | GI50 (SK-OV-3) | GI50 (UO-31) | GI50 (MCF7) | GI50 (HCT-15) | GI50 (A498)
1 | Cc1c2c(nc3ccccc13)C(=O)c1cccnc1C2=O | 11.1 µM (inactive) | 1.77 µM (inactive) | 6.87 µM (inactive) | 5.79 µM (inactive) | 26.7 µM (inactive) | 1.96 µM (inactive) | > 100 µM (inactive) | 10.7 µM (inactive) | 6.46 µM (inactive) | 6.5 µM (inactive) | 17.1 µM (inactive) | 17 µM (inactive) | 17.8 µM (inactive) | 63.5 µM (inactive) | 20.6 µM (inactive) | > 100 µM (inactive) | 15.2 µM (inactive) | 4.89 µM (inactive) | 10.9 µM | –
2 | COC(=O)/C(=C\Nc1cccc(C)n1)S(=O)(=O)c1ccc(C)cc1 | 71 µM (inactive) | 30.1 µM (inactive) | 66.4 µM (inactive) | > 100 µM (inactive) | 48 µM (inactive) | 61.7 µM (inactive) | 96.2 µM (inactive) | 79.4 µM (inactive) | 40.6 µM (inactive) | 61.2 µM (inactive) | 22.2 µM (inactive) | > 100 µM (inactive) | > 100 µM (inactive) | 70.8 µM (inactive) | > 100 µM (inactive) | > 100 µM (inactive) | 36.4 µM (inactive) | 68.2 µM (inactive) | 45.3 µM | –
3 | CCN1/C(=C/C#C/C(C)=C\c2sc3ccc(Cl)cc3[n+]2CC)Sc2ccc(Cl)cc21 | 2.61 µM (inactive) | 3.13 µM (inactive) | 1.56 µM (inactive) | 3.57 µM (inactive) | 2.9 µM (inactive) | 3.02 µM (inactive) | 4.28 µM (inactive) | 3.31 µM (inactive) | – | 0.668 µM (active) | 1.66 µM (inactive) | 1.67 µM (inactive) | 4 µM (inactive) | 5.6 µM (inactive) | 4.88 µM (inactive) | 5.55 µM (inactive) | 3.85 µM (inactive) | 3.73 µM (inactive) | 4.61 µM | –
4 | O=c1[nH]c(=O)n(COCCOCc2ccccc2)cc1Nc1ccccc1 | > 100 µM (inactive) | > 100 µM (inactive) | > 100 µM (inactive) | > 100 µM (inactive) | 24.2 µM (inactive) | > 100 µM (inactive) | > 100 µM (inactive) | > 100 µM (inactive) | > 100 µM (inactive) | > 100 µM (inactive) | > 100 µM (inactive) | – | > 100 µM (inactive) | > 100 µM (inactive) | > 100 µM (inactive) | > 100 µM (inactive) | > 100 µM (inactive) | > 100 µM (inactive) | > 100 µM | > 100 µM (inactive)
5 | COC(=O)c1c(C#C[Si](C)(C)C)c(C#C[Si](C)(C)C)c(C#C[Si](C)(C)C)c(C#C[Si](C)(C)C)c1C(=O)OC | > 100 µM (inactive) | > 100 µM (inactive) | > 100 µM (inactive) | > 100 µM (inactive) | > 100 µM (inactive) | > 100 µM (inactive) | > 100 µM (inactive) | – | > 100 µM (inactive) | > 100 µM (inactive) | > 100 µM (inactive) | > 100 µM (inactive) | > 100 µM (inactive) | > 100 µM (inactive) | – | > 100 µM (inactive) | > 100 µM (inactive) | > 100 µM (inactive) | > 100 µM | > 100 µM (inactive)
6 | Cc1nc(N)c(N2CCN(Cc3ccccc3)CC2)c(O)n1 | – | > 100 µM (inactive) | > 100 µM (inactive) | > 100 µM (inactive) | > 100 µM (inactive) | > 100 µM (inactive) | > 100 µM (inactive) | > 100 µM (inactive) | > 100 µM (inactive) | > 100 µM (inactive) | > 100 µM (inactive) | > 100 µM (inactive) | – | – | > 100 µM (inactive) | – | > 100 µM (inactive) | > 100 µM (inactive) | > 100 µM | > 100 µM (inactive)
7 | Cn1c(-c2cccs2)cc(-c2ccsc2)c1-c1cccs1 | 62.1 µM (inactive) | 55.3 µM (inactive) | 72.8 µM (inactive) | > 100 µM (inactive) | 3.04 µM (inactive) | 48.1 µM (inactive) | > 100 µM (inactive) | – | 45.9 µM (inactive) | > 100 µM (inactive) | 17.3 µM (inactive) | – | > 100 µM (inactive) | > 100 µM (inactive) | > 100 µM (inactive) | > 100 µM (inactive) | > 100 µM (inactive) | 5.97 µM (inactive) | 88.9 µM | > 100 µM (inactive)
8 | COc1cc(S(=O)(=O)Nc2ccc(-c3csc(N4C(=O)C(Cl)C4c4cccs4)n3)cc2)ccc1Cl (configuration not stated) | > 100 µM (inactive) | 65 µM (inactive) | 4.35 µM (inactive) | 82.6 µM (inactive) | 54.6 µM (inactive) | 71.6 µM (inactive) | – | 2.43 µM (inactive) | 29.4 µM (inactive) | 5.32 µM (inactive) | 31.7 µM (inactive) | 26.9 µM (inactive) | 18.2 µM (inactive) | 23.5 µM (inactive) | > 100 µM (inactive) | > 100 µM (inactive) | 84.3 µM (inactive) | 29.5 µM (inactive) | > 100 µM | > 100 µM (inactive)
9 | Cc1nc(C)c(N2CCN(CN)CC2)c(O)n1 | – | > 100 µM (inactive) | > 100 µM (inactive) | > 100 µM (inactive) | > 100 µM (inactive) | > 100 µM (inactive) | > 100 µM (inactive) | > 100 µM (inactive) | > 100 µM (inactive) | > 100 µM (inactive) | > 100 µM (inactive) | > 100 µM (inactive) | > 100 µM (inactive) | > 100 µM (inactive) | > 100 µM (inactive) | > 100 µM (inactive) | > 100 µM (inactive) | > 100 µM (inactive) | > 100 µM | > 100 µM (inactive)
10 | CC1(C)OCC([C@H]2O[C@@H](CC(=S)NCCCCCCCCCCCCNC(=S)C[C@H]3O[C@@H](C4COC(C)(C)O4)[C@H]4OC(C)(C)O[C@H]43)[C@H]3OC(C)(C)O[C@H]32)O1 (some centres not stated) | > 100 µM (inactive) | 58.5 µM (inactive) | 45.3 µM (inactive) | – | 19.2 µM (inactive) | 25.6 µM (inactive) | > 100 µM (inactive) | 79.1 µM (inactive) | 30.7 µM (inactive) | 34.8 µM (inactive) | – | 15.7 µM (inactive) | > 100 µM (inactive) | > 100 µM (inactive) | > 100 µM (inactive) | – | 19 µM (inactive) | 24.4 µM (inactive) | 73.1 µM | 11.9 µM (inactive)
11 | Cc1nc2c(nc1C)-c1c(c3c(n1Cc1ccccc1)C(=O)CCC3)C(=O)C2=O | 3.48 µM (inactive) | 2.21 µM (inactive) | 2.86 µM (inactive) | 2.42 µM (inactive) | 4.06 µM (inactive) | 4.62 µM (inactive) | 18.8 µM (inactive) | 3.14 µM (inactive) | 3.69 µM (inactive) | 2.1 µM (inactive) | 30.5 µM (inactive) | 1.84 µM (inactive) | 2.58 µM (inactive) | – | 8.79 µM (inactive) | 18.9 µM (inactive) | 2.08 µM (inactive) | 2.29 µM (inactive) | 3.15 µM | 18.8 µM (inactive)
12 | C=C1C(OC2O[C@@H]3O[C@@]4(C)CC[C@H]5[C@H](C)CC[C@@H](C2=C)[C@@]35O4)O[C@@H]2O[C@@]3(C)CC[C@H]4[C@H](C)CC[C@@H]1[C@@]24O3 (some centres not stated) | – | > 50 µM (inactive) | > 50 µM (inactive) | > 50 µM (inactive) | > 50 µM (inactive) | > 50 µM (inactive) | > 50 µM (inactive) | > 50 µM (inactive) | > 50 µM (inactive) | > 50 µM (inactive) | > 50 µM (inactive) | > 50 µM (inactive) | > 50 µM (inactive) | > 50 µM (inactive) | > 50 µM (inactive) | > 50 µM (inactive) | > 50 µM (inactive) | > 50 µM (inactive) | > 50 µM | > 50 µM (inactive)
13 | COc1nc(C#CC2(O)CCCCC2)nc(OC)n1 | 19.4 µM (inactive) | 10.9 µM (inactive) | 10 µM (inactive) | 12.4 µM (inactive) | 30.5 µM (inactive) | 24.3 µM (inactive) | – | 2.83 µM (inactive) | 13.7 µM (inactive) | 3.47 µM (inactive) | 14.7 µM (inactive) | 2.88 µM (inactive) | 11.1 µM (inactive) | 12.9 µM (inactive) | 34.2 µM (inactive) | 53.6 µM (inactive) | 3.82 µM (inactive) | 4.28 µM (inactive) | 2.69 µM | 17.3 µM (inactive)
14 | O=C1Nc2ccc([N+](=O)[O-])cc2/C1=N/NC(=S)Nc1ccccc1 | 7.57 µM (inactive) | 6.35 µM (inactive) | – | 5.9 µM (inactive) | 4.71 µM (inactive) | 3.61 µM (inactive) | 6.11 µM (inactive) | 9.46 µM (inactive) | 9.33 µM (inactive) | 5.26 µM (inactive) | 11.7 µM (inactive) | 15.5 µM (inactive) | 1.41 µM (inactive) | 11.6 µM (inactive) | 8.57 µM (inactive) | 14 µM (inactive) | 4.79 µM (inactive) | 4.41 µM (inactive) | 3.03 µM | 3.56 µM (inactive)
15 | OCC1CCC(n2cnc3c(O)ncnc32)O1 (configuration not stated) | – | > 1000 µM (inactive) | > 100 µM (inactive) | > 100 µM (inactive) | > 1000 µM (inactive) | > 100 µM (inactive) | > 1000 µM (inactive) | > 100 µM (inactive) | > 100 µM (inactive) | > 1000 µM (inactive) | > 100 µM (inactive) | > 100 µM (inactive) | > 100 µM (inactive) | > 100 µM (inactive) | > 100 µM (inactive) | > 100 µM (inactive) | 502 µM (inactive) | > 100 µM (inactive) | > 100 µM | > 92 µM (inactive)
